Reference: PubChem BioAssay (NCI)
Values joined by “and” are separate entries in the source; they are usually repeats but may differ in a detail not shown here. Equal entries are not always repeated.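 The compound was tested at five concentrations on cells cultured in 96-well plates, with a 48-hour exposure period. GI50: concentration for 50% inhibition of growth. TGI: total growth inhibition.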

How the values were obtained:
Test in all cases: NCI tumour cell line growth inhibition, 48 h
SR leukemia = tested on: SR leukemia
K-562 leukemia = tested on: K-562 leukemia
HT29 colon = tested on: HT29 colon
MOLT-4 leukemia = tested on: MOLT-4 leukemia
HS 578T breast = tested on: HS 578T breast
LOX IMVI melanoma = tested on: LOX IMVI melanoma
SF-295 CNS = tested on: SF-295 CNS
EKVX NSCLC = tested on: EKVX NSCLC
SF-268 CNS = tested on: SF-268 CNS
NCI-H226 lung = tested on: NCI-H226 lung

| SMILES | GI50 (SR leukemia) | TGI (SR leukemia) [µM] | GI50 (K-562 leukemia) | TGI (K-562 leukemia) [µM] | GI50 (HT29 colon) | TGI (HT29 colon) [µM] | GI50 (MOLT-4 leukemia) | TGI (MOLT-4 leukemia) [µM] | GI50 (HS 578T breast) | TGI (HS 578T breast) | GI50 (LOX IMVI melanoma) | TGI (LOX IMVI melanoma) [µM] | GI50 (SF-295 CNS) | TGI (SF-295 CNS) [µM] | GI50 (EKVX NSCLC) | TGI (EKVX NSCLC) [µM] | GI50 (SF-268 CNS) | TGI (SF-268 CNS) [µM] | GI50 (NCI-H226 lung) [µM] | TGI (NCI-H226 lung) [µM] |
| --- | --- | --- | --- | --- | --- | --- | --- | --- | --- | --- | --- | --- | --- | --- | --- | --- | --- | --- | --- | --- |
| c1ccc(CC(NCCNC(Cc2ccccc2)c2ccccc2)c2ccccc2)cc1 (stereo not drawn) | 0.243 µM | 0.587 | 0.307 µM | 0.89 | 0.227 µM | 0.567 | 0.306 µM | 0.959 | 1.64 µM | 4.12 µM | 0.185 µM | 0.375 | 0.372 µM | 1.56 | 0.482 µM | 3.17 | 0.801 µM | 7.12 | 1.12 | 2.79 |
| O=C(Nc1cc(S(=O)(=O)c2ccc(Cl)cc2)ccc1Cl)c1cc(I)cc(I)c1O | 26 µM | 60.1 | 16 µM | 40.9 | 16.4 µM | 30.2 | 19.3 µM | 41 | 17.8 µM | 47.6 µM | 18.2 µM | 38.7 | 15.1 µM | 32 | 20.2 µM | 44.5 | 18.5 µM | 40.4 | 26.8 | 69.1 |
| C=CC(=O)Nc1cccc(Nc2nc(Nc3ccc(OCCOC(F)F)cc3)ncc2F)c1 | 2.88 µM | > 100 | 3.07 µM | > 100 | 2.67 µM | 13.5 | 3.73 µM | > 100 | 2.13 µM | 8.77 µM | 1.37 µM | 4.52 | 6.04 µM | 83.4 | 4.3 µM | > 100 | 2.25 µM | 17.6 | 0.52 | 11.2 |
| CC(=O)Oc1ccc(C2(c3ccc(OC(C)=O)cc3)C(=O)Nc3ccccc32)cc1 | 25.1 µM and 24.2 µM | > 100 | 17.3 µM and 42.2 µM | > 87.3 | 30.4 µM and 45.3 µM | > 100 | 16.3 µM and 28.3 µM | > 100 | 0.0651 µM and 0.153 µM | 0.484 µM and 0.7 µM | 16.8 µM and 13.8 µM | > 100 | 23.5 µM and 38.3 µM | > 100 | 8.49 µM and 22.4 µM | > 100 | 38.5 µM and 32.8 µM | > 100 | > 100 | > 100 |
| COc1cc2nnn3c4ncccc4c(N=O)c3c2cc1OC | 0.0319 µM |  | 0.282 µM | > 100 | 1.34 µM | > 100 |  | > 100 | 4.82 µM | > 100 µM | 1.16 µM | > 100 | 4.99 µM | 29.4 | 3.97 µM | > 66.6 | 0.564 µM | 19.3 | 6.91 | 44.4 |
| CCC(=O)c1cc([N+](=O)[O-])c(Br)s1 | 1.2 µM | 3.71 | 2.16 µM | 6.82 | 1.52 µM | 3.29 | 2.7 µM | 13.2 | 19.5 µM | 85 µM | 1.88 µM | 3.46 | 15.5 µM | 31.6 | 16.4 µM | 34.8 | 4.39 µM | 14.6 | 18.7 | 35.6 |
| Fc1cc(-c2nnc3n2N=C(c2ccc(Cl)cc2Cl)CS3)c(Cl)cc1Cl | > 100 µM | > 100 | 47.5 µM | > 100 | 40.5 µM | > 100 | 75.1 µM | > 100 | 33.6 µM | > 100 µM | 34.3 µM | > 100 | 36.4 µM | > 100 | 58.5 µM | > 100 | 36.6 µM | > 100 | 36.5 | > 100 |
| Cc1n(Cc2ccc3ccccc3c2)c(Cl)c(Cl)[n+]1Cc1ccc2ccccc2c1 | 1.87 µM | 4.98 | 1.9 µM | 7.3 | 1.76 µM | 4.12 | 2.31 µM | 5.58 | 1.54 µM | 3.79 µM | 1.6 µM | 2.95 | 2.62 µM | 8.09 | 2.4 µM | 8.01 | 1.67 µM | 3.29 | 2.48 | 6.97 |
| CCc1cccc(CC)c1/C=C/c1cncc(C(=O)NC)c1 | 7.24 µM | > 25 | 5.62 µM | > 25 | 8.79 µM | > 25 | 12.4 µM | > 25 | 7.65 µM | > 25 µM | 11.5 µM | > 25 | 11.6 µM | > 25 | 14.2 µM | > 25 | 15.6 µM | > 25 | 17.2 | > 25 |
| COc1ccc(-c2nc3c(c(=O)n2C(C)=O)C(c2ccc(Cl)cc2)c2sc4c(Cl)cccc4c2O3)cc1 (stereo not drawn) | 0.354 µM | 5.05 | 0.26 µM | 2.7 | 0.325 µM | 1.09 | 0.386 µM | 2.64 | 0.521 µM | 4.44 µM | 0.504 µM | 1.84 | 0.256 µM | 1.27 | 0.71 µM | 4.74 | 0.68 µM | 3.82 | 0.329 | 2.24 |
